Experimental data published in ChEMBL document CHEMBL2331298, “Flavonoids as receptor tyrosine kinase FLT3 inhibitors” (Bioorg Med Chem Lett, 2013).

Experiments:
[1] = target: T1, Receptor-type tyrosine-protein kinase FLT3 (Homo sapiens, UniProt P36888); test: Inhibition of recombinant FLT3 (unknown origin) by TR-FRET assay
T1 sequence (P36888 whole entry): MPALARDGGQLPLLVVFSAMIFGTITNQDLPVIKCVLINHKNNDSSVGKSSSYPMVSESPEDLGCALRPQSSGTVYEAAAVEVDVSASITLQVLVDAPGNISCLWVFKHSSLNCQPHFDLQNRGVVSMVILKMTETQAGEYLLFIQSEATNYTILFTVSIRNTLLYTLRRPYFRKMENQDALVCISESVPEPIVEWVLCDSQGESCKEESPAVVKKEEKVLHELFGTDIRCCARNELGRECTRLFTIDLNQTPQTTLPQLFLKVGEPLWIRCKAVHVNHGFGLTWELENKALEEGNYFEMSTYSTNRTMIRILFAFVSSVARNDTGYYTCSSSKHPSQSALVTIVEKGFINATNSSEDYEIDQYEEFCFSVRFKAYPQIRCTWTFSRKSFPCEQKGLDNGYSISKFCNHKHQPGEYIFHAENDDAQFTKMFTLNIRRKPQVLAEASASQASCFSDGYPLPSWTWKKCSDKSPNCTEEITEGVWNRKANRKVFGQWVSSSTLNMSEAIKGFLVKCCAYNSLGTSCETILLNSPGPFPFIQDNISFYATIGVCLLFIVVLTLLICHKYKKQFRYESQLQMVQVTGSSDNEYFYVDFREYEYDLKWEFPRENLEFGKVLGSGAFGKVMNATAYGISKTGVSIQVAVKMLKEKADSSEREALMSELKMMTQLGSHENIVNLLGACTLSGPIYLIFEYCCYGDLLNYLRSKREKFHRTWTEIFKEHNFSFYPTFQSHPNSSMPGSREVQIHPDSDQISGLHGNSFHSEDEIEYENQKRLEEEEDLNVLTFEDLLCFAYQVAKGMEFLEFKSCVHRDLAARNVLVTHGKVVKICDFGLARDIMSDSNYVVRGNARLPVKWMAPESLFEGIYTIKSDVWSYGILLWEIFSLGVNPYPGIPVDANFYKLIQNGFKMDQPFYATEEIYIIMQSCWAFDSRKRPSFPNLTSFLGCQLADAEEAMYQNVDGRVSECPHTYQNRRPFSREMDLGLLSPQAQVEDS

[2] = Cytotoxicity against human RS4:11 cells harboring wild type FLT3 after 72 hrs by tetrazolium based Ez CyTox cell viability assay; format: functional; settings: RS4-11, 72 h
[3] = system: MV4-11; test: Cytotoxicity against human MV4-11 cells harboring FLT3 mutation after 72 hrs by tetrazolium based Ez CyTox cell viability assay; format: functional; settings: MV4-11, 72 h
[4] = system: MV4-11; test: Cell cycle arrest in human MV4-11 cells harboring FLT3 mutation assessed as accumulation at S phase at 0.1 uM after 48 hrs using propidium iodide staining by flow cytometry (reference value: 15.48%); format: functional
[5] = system: MV4-11; test: Cell cycle arrest in human MV4-11 cells harboring FLT3 mutation assessed as accumulation at G1 phase at 0.1 uM after 48 hrs using propidium iodide staining by flow cytometry (reference value: 69.69%); format: functional
[6] = system: MV4-11; test: Cell cycle arrest in human MV4-11 cells harboring FLT3 mutation assessed as accumulation at sub-G1 phase at 0.1 uM after 48 hrs using propidium iodide staining by flow cytometry (reference value: 3.86%); format: functional
[7] = system: MV4-11; test: Cell cycle arrest in human MV4-11 cells harboring FLT3 mutation assessed as accumulation at G2/M phase at 10 uM after 48 hrs using propidium iodide staining by flow cytometry (reference value: 11.61%); format: functional
[8] = system: MV4-11; test: Cell cycle arrest in human MV4-11 cells harboring FLT3 mutation assessed as accumulation at S phase at 10 uM after 48 hrs using propidium iodide staining by flow cytometry (reference value: 15.48%); format: functional
[9] = system: MV4-11; test: Cell cycle arrest in human MV4-11 cells harboring FLT3 mutation assessed as accumulation at G1 phase at 10 uM after 48 hrs using propidium iodide staining by flow cytometry (reference value: 69.69%); format: functional
[10] = system: MV4-11; test: Cell cycle arrest in human MV4-11 cells harboring FLT3 mutation assessed as accumulation at sub-G1 phase at 10 uM after 48 hrs using propidium iodide staining by flow cytometry (reference value: 3.86%); format: functional
[11] = system: MV4-11; test: Cell cycle arrest in human MV4-11 cells harboring FLT3 mutation assessed as accumulation at G2/M phase at 1 uM after 48 hrs using propidium iodide staining by flow cytometry (reference value: 11.61%); format: functional
[12] = system: MV4-11; test: Cell cycle arrest in human MV4-11 cells harboring FLT3 mutation assessed as accumulation at S phase at 1 uM after 48 hrs using propidium iodide staining by flow cytometry (reference value: 15.48%); format: functional
[13] = system: MV4-11; test: Cell cycle arrest in human MV4-11 cells harboring FLT3 mutation assessed as accumulation at G1 phase at 1 uM after 48 hrs using propidium iodide staining by flow cytometry (reference value: 69.69%); format: functional
[14] = system: MV4-11; test: Cell cycle arrest in human MV4-11 cells harboring FLT3 mutation assessed as accumulation at sub-G1 phase at 1 uM after 48 hrs using propidium iodide staining by flow cytometry (reference value: 3.86%); format: functional
[15] = system: MV4-11; test: Cell cycle arrest in human MV4-11 cells harboring FLT3 mutation assessed as accumulation at G2/M phase at 0.1 uM after 48 hrs using propidium iodide staining by flow cytometry (reference value: 11.61%); format: functional

Row | Compound | IC50 [1] [µM] | GI50 [2] [µM] | GI50 [3] [µM] | also measured
1 | O=c1c(OC2O[C@H](CO)[C@H](O)[C@H](O)[C@H]2O)c(-c2ccc(O)c(O)c2)oc2cc(O)cc(O)c12 (stereo not given in full) | > 10 | – | – | –
2 | O=c1c(OC2O[C@H](CO)[C@@H](O)[C@H](O)[C@@H]2O)c(-c2ccc(O)c(O)c2)oc2cc(O)cc(O)c12 (stereo not given in full) | > 10 | – | – | –
3 | O=c1cc(-c2ccc(O)cc2)oc2cc(O)cc(O)c12 [APIGENIN] | 1.45 | 27.9 | 2.81 | –
4 | O=c1cc(-c2ccccc2)oc2cc(O)c(O)c(O)c12 [BAICALEIN] | > 10 | – | – | –
5 | O=c1cc(-c2ccccc2)oc2cc(O)cc(O)c12 [CHRYSIN] | > 10 | – | – | –
6 | O=C1c2c(O)cc(O)cc2O[C@H](c2ccc(O)cc2)[C@H]1O [DIHYDROKAEMPFEROL] | > 10 | – | – | –
7 | O=C1C[C@@H](c2ccc(O)c(O)c2)Oc2cc(O)cc(O)c21 [ERIODICTYOL] | > 10 | – | – | –
8 | O=c1c(O)c(-c2ccccc2)oc2cc(O)cc(O)c12 [GALANGIN] | > 10 | – | – | –
9 | O=c1c(O[C@@H]2O[C@H](CO)[C@@H](O)[C@H](O)[C@H]2O)c(-c2ccc(O)c(O)c2)oc2cc(O)cc(O)c12 [ISOQUERCETIN] | > 10 | – | – | –
10 | O=c1c(O)c(-c2ccc(O)cc2)oc2cc(O)cc(O)c12 [KAEMPFEROL] | 2.32 | > 50 | 3.34 | –
11 | O=c1cc(-c2ccc(O)c(O)c2)oc2cc(O)cc(O)c12 [LUTEOLIN] | 0.83 | 7.25 | 1.76 | Activity [4]: 10.5%; Activity [5]: 71.25%; Activity [6]: 13.71%; Activity [7]: 0.51%; Activity [8]: 2.09%; Activity [9]: 66.68%; Activity [10]: 30.76%; Activity [11]: 4.2%; Activity [12]: 12.8%; Activity [13]: 67.08%; Activity [14]: 16.42%; Activity [15]: 4.9%
12 | O=c1c(O)c(-c2cc(O)c(O)c(O)c2)oc2cc(O)cc(O)c12 [MYRICETIN] | 1.69 | > 50 | > 50 | –
13 | O=C1C[C@@H](c2ccc(O)cc2)Oc2cc(O)cc(O)c21 [NARINGENIN] | > 10 | – | – | –
14 | COc1c(O)cc2oc(-c3ccccc3)cc(=O)c2c1O [OROXYLIN A] | 1.48 | 40 | 5.59 | –
15 | O=c1c(O)c(-c2ccc(O)c(O)c2)oc2cc(O)cc(O)c12 [QUERCETIN] | 0.59 | 21.6 | 13.1 | –
16 | O=c1cc(-c2ccc(O)cc2)oc2cc(O)c(O)c(O)c12 [SCUTELLAREIN] | > 10 | – | – | –
